Experimental data from article PMC11320734 (ACS Pharmacology & Translational Science, 2024).
Values after ≈ are worked out from the molar mass of the structure shown. Read-outs that look alike come from different tables or passages of the source.

Assays:
[1] = target: hCB1R (Homo sapiens, UniProt P21554); assay: Competition binding assay with [3H]-CP55940, HEK cell membranes; details: read-out: Ki hCB1R (binding assay); [3H]-CP55940 competition; mean ± SD
Description: Competition and saturation binding assays were performed using the radiolabeled CB1R/CB2R agonist [^3H]-CP55940 (PerkinElmer).
Binding reactions were terminated by vacuum filtration onto 0.5% polyethylenimine presoaked GF/B filter plates (Packard) using a Filtermate cell harvester followed by 6 brief washes with 0.3 mL/well of ice-cold wash buffer. Wash buffer comprising 50 mmol L^–1 Tris- HCl, 5 mmol L^–1 MgCl2, 2.5 mmol L^–1 EDTA, and 0.5% fatty acid-free BSA, pH 7.4. Plates were dried at 50 °C for 1 h and liquid scintillation counting was used to determine levels of bound radiolabel. IC50 values and Hill slopes were determined with a 4-parameter logistic model using ActivityBase (ID Business Solution, Guilford, UK) and pKi values were determined using the Cheng–Prusoff equation as shown below: [drawing 1] where S indicates the concentration of the substrate and Km depicts the affinity constant of the substrate.

[2] = Parallel artificial membrane permeability (PAMPA) assay; assay type: in vitro ADME; details: for Papp: PAMPA, read-out: PAMPA Peff
Description: The general permeability of the compound was assessed using the parallel artificial membrane permeability (PAMPA) assay and the permeability-glycoprotein (P-gp) assay was used to specifically test for brain penetration. PAMPA data were generated as previously reported by our group.[44] The P-gp assay, which evaluates the brain penetration of test compounds, was performed as described elsewhere.[45] Briefly, transfected porcine kidney epithelial (LLC-PK1) cells expressing human or mouse P-gp were cultured on 96-well semipermeable filter membrane plates (Millipore, Darmstadt, Germany). Cells formed a polarized monolayer with tight junctions that acted as a barrier between apical and basolateral compartments. P-gp was expressed in the apical-facing membrane of the monolayer (tightness confirmed using Lucifer yellow). To determine the unidirectional permeability (Papp) of RNB-61, samples were added separately to the apical (for A > B Papp) and basolateral (for B > A Papp) sides of the cell monolayer (i.e., donor compartments), and RNB-61 movement into the respective receiver compartments was measured by LC-MS/MS over a 3 h incubation at 37 °C. The effect of P-gp was measured by expressing the efflux ratio of the unidirectional A > B and B > A Papp values. The mean permeability (A > B and B > A Papp) was determined in the absence of P-gp via the addition of the selective P-gp inhibitor, tariquidar.

[3] = Aqueous stability assay (ASTA); assay type: physicochemical
Description: The stability of the compound was assessed using the aqueous stability assay (ASTA), as previously described.[37] In short, aqueous solutions of RNB-61 were prepared at 5 different pH values (range 1–10), added to incubation plates and shaken for 10 min at 37 °C. Solutions were transferred to a filter plate (Millipore MSGVN2250, pore size 0.22 μm) and filtered into V- bottom plates (ABGene, AB-0800) prior to heat-sealing. The procedure was repeated, increasing the 37 °C incubation time by 2 h. Samples were analyzed by HPLC at 0 and 2 h. A compound was classified as unstable if <90% of the initial concentration was detected after 2 h.

[4] = target: hERG channel (Homo sapiens, UniProt Q12809); assay: hERG inhibition; assay type: cell-based
Chain of hERG channel (Q12809 whole entry): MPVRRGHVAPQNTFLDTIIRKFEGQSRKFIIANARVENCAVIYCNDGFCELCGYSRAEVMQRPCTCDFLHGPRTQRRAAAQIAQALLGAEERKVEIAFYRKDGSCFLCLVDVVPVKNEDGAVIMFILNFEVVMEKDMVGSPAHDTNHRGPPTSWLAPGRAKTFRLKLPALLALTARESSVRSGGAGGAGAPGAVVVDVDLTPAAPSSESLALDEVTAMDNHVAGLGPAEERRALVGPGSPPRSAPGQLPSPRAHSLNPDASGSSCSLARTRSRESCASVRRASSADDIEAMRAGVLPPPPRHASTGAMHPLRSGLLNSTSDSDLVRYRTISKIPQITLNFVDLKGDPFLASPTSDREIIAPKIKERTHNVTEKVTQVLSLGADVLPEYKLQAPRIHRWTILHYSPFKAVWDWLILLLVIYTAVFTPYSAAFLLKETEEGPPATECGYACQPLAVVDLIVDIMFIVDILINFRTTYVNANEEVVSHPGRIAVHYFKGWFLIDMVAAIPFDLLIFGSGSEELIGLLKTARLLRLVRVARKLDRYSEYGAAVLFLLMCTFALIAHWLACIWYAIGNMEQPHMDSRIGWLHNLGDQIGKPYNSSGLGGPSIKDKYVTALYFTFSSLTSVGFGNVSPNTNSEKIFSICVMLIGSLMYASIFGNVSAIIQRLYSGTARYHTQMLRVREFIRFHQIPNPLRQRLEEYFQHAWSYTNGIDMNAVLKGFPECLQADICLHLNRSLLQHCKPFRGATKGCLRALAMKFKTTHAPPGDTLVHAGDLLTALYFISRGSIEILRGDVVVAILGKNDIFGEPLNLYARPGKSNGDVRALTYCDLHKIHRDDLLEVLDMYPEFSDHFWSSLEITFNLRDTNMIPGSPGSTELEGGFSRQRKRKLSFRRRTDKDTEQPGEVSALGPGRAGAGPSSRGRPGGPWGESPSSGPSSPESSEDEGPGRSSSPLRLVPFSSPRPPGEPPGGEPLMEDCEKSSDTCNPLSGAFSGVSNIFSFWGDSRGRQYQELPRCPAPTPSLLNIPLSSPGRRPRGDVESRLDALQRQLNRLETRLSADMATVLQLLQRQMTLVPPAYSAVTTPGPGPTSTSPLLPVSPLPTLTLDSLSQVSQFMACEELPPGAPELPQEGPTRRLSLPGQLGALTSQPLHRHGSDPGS

[5] = Thermodynamic solubility assay (THESA), also in FaSSIF and FeSSIF; assay type: physicochemical; details: thermodynamic from solid
Description: For the determination of the octanol/water distribution coefficient (logD), the carrier-mediated distribution system (CAMDIS)-assay was used as described elsewhere.[38] Kinetic and thermodynamic solubilities were assessed using the lyophilization solubility assay (LYSA) and thermodynamic solubility assay (THESA), respectively. For the LYSA, the solubility of RNB- 61 in phosphate buffer at pH 6.5 from an evaporated 10 mM DMSO compound stock solution was measured. Two aliquots of the test compounds were dried and dissolved in phosphate buffer at pH 6.5. The solutions were then filtered and diluted (3 different dilution levels for each compound) before high throughput mass spectrometry (MS) analysis was performed in an Agilent RapidFire system. Each test compound was quantified using a 6-point calibration curve prepared with the same DMSO starting solution. For THESA, RNB-61 (8.6 mg per mL solvent/vehicle) was stirred in HPLC vials (9 × 12 × 32 mm, Waters) at 350 rpm for 15 h. The presence of solid particles was determined by microscopic analysis of 10 μL samples. If the active pharmacological ingredient (API) was completely dissolved, more solid API was added before stirring for another 15 h. This step was repeated for up to 96 h or until residual solid particles could be detected. Samples (0.5 mL) were transferred to Eppendorf Ultrafree filter tubes (Filter: PVDF 0.22 μm) and centrifuged at 14,500 rpm for 10 min. The filtrates were diluted in ethanol and analyzed by ultra-performance liquid chromatography (UPLC). Measurements were repeated in 0.05 M aqueous phosphate buffer and in fasted (FaSSIF) and fed (FeSSIF) simulated gastrointestinal fluids.

[6] = target: TRPV1 (Homo sapiens, UniProt Q8NER1); assay: Endocannabinoid target profiling: TRPV1; details: Table S1; read-out: TRPV1 (Ki, IC50)
Chain of TRPV1 (Q8NER1 whole entry, species assumed): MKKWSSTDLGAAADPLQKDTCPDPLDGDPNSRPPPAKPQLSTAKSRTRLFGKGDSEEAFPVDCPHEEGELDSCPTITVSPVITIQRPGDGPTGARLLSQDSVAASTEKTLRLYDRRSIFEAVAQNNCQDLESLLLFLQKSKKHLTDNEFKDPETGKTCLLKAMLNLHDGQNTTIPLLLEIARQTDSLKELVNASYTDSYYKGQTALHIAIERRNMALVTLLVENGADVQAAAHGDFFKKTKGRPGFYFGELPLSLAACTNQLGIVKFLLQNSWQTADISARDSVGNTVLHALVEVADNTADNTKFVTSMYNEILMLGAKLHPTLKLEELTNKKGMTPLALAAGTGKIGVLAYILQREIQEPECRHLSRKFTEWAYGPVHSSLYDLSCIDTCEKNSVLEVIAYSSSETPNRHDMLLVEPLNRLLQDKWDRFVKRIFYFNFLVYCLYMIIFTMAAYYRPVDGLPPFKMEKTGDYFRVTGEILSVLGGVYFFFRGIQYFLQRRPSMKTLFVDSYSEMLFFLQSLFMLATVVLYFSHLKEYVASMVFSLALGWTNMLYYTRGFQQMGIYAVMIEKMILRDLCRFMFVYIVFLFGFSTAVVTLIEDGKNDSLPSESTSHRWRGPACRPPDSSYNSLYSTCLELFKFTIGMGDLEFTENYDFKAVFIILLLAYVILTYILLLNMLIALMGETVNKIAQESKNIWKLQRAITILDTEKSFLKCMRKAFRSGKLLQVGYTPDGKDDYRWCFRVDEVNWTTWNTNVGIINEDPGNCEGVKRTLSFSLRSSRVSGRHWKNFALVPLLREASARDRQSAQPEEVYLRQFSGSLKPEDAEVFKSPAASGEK

[7] = Hepatocyte clearance assay; assay type: in vitro ADME
Description: The hepatocyte clearance assay was performed as previously described.[39] For mice hepatocytes, the suspension cultures were either freshly prepared by liver perfusion or prepared from cryopreserved hepatocyte batches (pooled C57BL6 mouse hepatocytes were purchased from BioreclamationIVT (NY, USA)). For human hepatocytes, commercially available, pooled (5–20 donors), cryopreserved samples from nontransplantable liver tissues were used. For the suspension cultures, Nunc U96 PP-0.5 mL (Nunc Natural, 267245) plates were used, which were incubated in a Thermo Forma incubator from Fischer Scientific (Wohlen, Switzerland) equipped with shakers from Variomag Teleshake (Sterico, Wangen, Switzerland) for maintaining cell dispersion. The cell culture medium was William’s media supplemented with glutamine, antibiotics (100 IU/mL Penicillin-Streptomycin, Gibco), insulin, dexamethasone, and 10% fetal calf serum (FCS). Incubations of a test compound at 1 μM test concentration in suspension cultures of 1 × 10^6 cells mL^–1 (∼1 μg μL^–1 protein concentration) were performed in 96-well plates and shaken at 900 rpm for up to 2 h in a 5% CO2 atmosphere at 37 °C. After 3, 6, 10, 20, 40, 60, and 120 min, a 100 μL cell suspension in each well was quenched with 200 μL methanol containing an internal standard. Samples were then cooled and centrifuged before analysis by LC-MS/MS. […]

[8] = test system: endocannabinoid membrane transporter (EMT); assay: Endocannabinoid target profiling: cellular AEA uptake; assay type: cell-based

Chain of hCB1R (P21554 whole entry): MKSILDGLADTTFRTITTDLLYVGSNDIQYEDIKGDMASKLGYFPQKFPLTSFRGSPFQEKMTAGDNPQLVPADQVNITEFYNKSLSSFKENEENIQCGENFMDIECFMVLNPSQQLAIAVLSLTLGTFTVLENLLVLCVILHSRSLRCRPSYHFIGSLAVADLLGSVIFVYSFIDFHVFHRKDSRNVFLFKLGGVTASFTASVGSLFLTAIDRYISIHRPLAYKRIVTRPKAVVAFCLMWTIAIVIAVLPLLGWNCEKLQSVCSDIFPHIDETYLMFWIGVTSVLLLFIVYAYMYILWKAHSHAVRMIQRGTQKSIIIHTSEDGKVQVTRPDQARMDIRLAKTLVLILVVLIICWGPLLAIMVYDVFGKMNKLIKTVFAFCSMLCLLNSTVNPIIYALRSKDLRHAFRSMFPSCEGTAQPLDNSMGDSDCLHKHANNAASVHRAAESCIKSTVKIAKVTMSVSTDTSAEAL

## Cn1c(C(C)(C)C)cc(=NC(=O)c2cc(C(F)(F)F)ccc2OCC(C)(C)O)n1CC1CCC1 [RNB-61]
[1]
  Ki: 3.88 ± 0.0734 µM
[2]
  PAMPA %Acc: 6%
  PAMPA %Don: 22%
  PAMPA %Mem: 72%
  PAMPA Peff: 2.14 × 10^–6 cm s^–1
  Papp: 9 nm/s
[2]; Table 1
  Papp: 21.4 nm/s
[3]; 2 h, 37 °C
  stability in aqueous solution at pH 1: 104.4 % of initial [200 nM]
  stability in aqueous solution at pH 4: 102.7 % of initial [200 nM]
  stability in aqueous solution at pH 6.5: 102.7 % of initial [200 nM]
  stability in aqueous solution at pH 8: 100.5 % of initial [200 nM]
  stability in aqueous solution at pH 10: 101.6 % of initial [200 nM]
[3]; 2 h at 37 °C at pH 1, 4, 6.5, 8 and 10
  stability in aqueous solution: stable
[4]
  hERG inhibition: >10 µM
[5]; aqueous buffer, read-out: aqueous solubility THESA
  solubility at 15 h: 0.316 mg/mL (≈ 656 µM)
[5]; fassif, fasted simulated gastrointestinal fluid, read-out: solubility FaSSIF
  solubility at 15 h: 0.63 mg/mL (≈ 1310 µM)
[5]; fessif, fed simulated gastrointestinal fluid, read-out: solubility FeSSIF
  solubility at 15 h: 1.37 mg/mL (≈ 2850 µM)
[6]
  IC50: > 50 µM
[7]; C57BL6, mouse
  hepatocyte CLint at 1 μM: 48.5 µL/min/1e6 cells
[7]; human, pooled cryopreserved human hepatocytes in suspension culture
  hepatocyte CLint at 1 μM: 85 µL/min/1e6 cells
[8]; Table S1, read-out: EMT (Ki, IC50)
  IC50: > 10 µM
[8]; screening concentration 10 μM
  inhibition of cellular AEA uptake (EMT): did not inhibit
